According to patent US7691805B2, “Antimicrobial compounds” (Neobiotics AB, priority 2004, dated 2010):
Values after ≈ are worked out from the molar mass of the structure shown.

Columns and labels:
[1] = Solubility; format: physicochemical; conditions: KCl gradient eluent during ion exchange isolation
[2] = tested on: Streptococcus: group C; test: Agar well diffusion; conditions: 40 ul of 1 mg/ml in DMSO per well
[3] = tested on: S. pneumoniae; test: Agar well diffusion; conditions: 40 ul of 1 mg/ml in DMSO per well
[4] = tested on: Staphylococci incl. multiresistant MRSA; test: Agar well diffusion; conditions: 40 ul of 1 mg/ml in DMSO per well
[5] = tested on: S.aureus; test: MIC by broth dilution; format: cell-based; conditions: growth media without DMSO
Procedure: (§1) MIC/MBC determinations were performed by broth dilution according to established procedures, well known for a person skilled in the art.

[6] = tested on: L. monocytogenes; test: Agar well diffusion; conditions: 40 ul of 1 mg/ml in DMSO per well
[7] = tested on: labial herpes; test: Topical application in softening cream to a beginning labial herpes outbreak; format: in vivo, human; conditions: 0.2 ml solution (0.1 g/l) in softening cream on the lip; performed twice
Procedure: Cp1 was added to a softening cream and 0.2 ml solution (0.1 g/l) was applied to an area of a beginning labial herpes outbreak on the lip of a person. After 3-4 hours the symptoms was gone. The experiment was performed twice.

[8] = tested on: CNS incl. resistant and multiresistant MRSE; test: Agar well diffusion; conditions: 40 ul of 1 mg/ml in DMSO per well
[9] = tested on: E. coli and other Gram-negatives; test: Agar well diffusion
[10] = tested on: streptococcal challenge; test: Lethal streptococcal challenge in the mouse; format: in vivo
[11] = tested on: Streptococcus: group B; test: Agar well diffusion; conditions: 40 ul of 1 mg/ml in DMSO per well
[12] = tested on: Streptococcus: group A; test: Agar well diffusion; conditions: 40 ul of 1 mg/ml in DMSO per well
[13] = tested on: GAS; test: MIC by broth dilution; format: cell-based, group A Streptococci; conditions: growth media without DMSO
Procedure: as §1

[14] = tested on: Aspergillus niger ATCC 16404; test: Antifungal MIC in Sabouraud broth; format: cell-based; conditions: 25° C. for 7 days; inoculum 10^3-10^4 cfu/ml
Procedure: (§2) The minimal inhibitory concentration (MIC) was determined using a method with Sabouraud broth (Becton Dickinson) and an initial inoculum 10^3-10^4 cfu/ml. Polypropylene 96-well plates (Nunc) were incubated at 25° C. for 48 h (for Candida albicans ATCC 10231) or 7 days (for Aspergillus niger ATCC 16404). The MIC was taken as the lowest drug concentration at which noticeable growth was inhibited. The experiments were performed in duplicate.

[15] = tested on: Candida albicans ATCC 10231; test: Antifungal MIC in Sabouraud broth; format: cell-based; conditions: 25° C. for 48 h; inoculum 10^3-10^4 cfu/ml
Procedure: as §2

[16] = tested on: α-haemolytic Streptococci; test: Agar well diffusion; conditions: 40 ul of 1 mg/ml in DMSO per well
[17] = tested on: MRSA; test: Growth inhibition of clinical isolates; conditions: approximately 100 strains of MRSA, several with additional resistance markers
[18] = tested on: Streptococcus: group G; test: Agar well diffusion; conditions: 40 ul of 1 mg/ml in DMSO per well

CC(C)CC(NC(=O)C(CCCN=C(N)N)NC(=O)OCc1ccccc1)C(=O)N[C@H](CNC(=O)/C=C/c1ccccc1)C(C)C (stereo in doubt) [Cp1, (2S)-2-[(N^α-Benzyloxycarbonyl-Arginyl-Leucyl)-Amino]-1-Trans-Cinnamoylamino-3-Methylbutane]
solubility in the presence of salts [1]: weak solubility
antibacterial effect [2]: +
antibacterial effect [3]: +
antibacterial effect [4]: +
MIC [5]: approximately 16 mg/L
antibacterial effect [6]: +
time after which the symptoms were gone [7]: 3 to 4 h
antibacterial effect [8]: +
activity against gram-negative bacteria [9]: low or no activity
antibacterial effect ([9]; E. coli and other Gram-negatives, 40 ul of 1 mg/ml in DMSO per well): −
protective capacity for lethal streptococcal challenge [10]: strong protective capacity
antibacterial effect [11]: +
antibacterial effect [12]: +
MIC [13]: approximately 16 mg/L
MIC Aspergillus niger ATCC 16404 [14]: 64 µg/mL (≈ 101 µM)
MIC Candida albicans ATCC 10231 [15]: 32 µg/ml
antibacterial effect [16]: −
growth inhibition of MRSA strains [17]: strongly inhibited in their growth
antibacterial effect [18]: +
